Experimental data published in US8680159B2, “Bradykinin 1 receptor modulating compounds” (Gruenenthal GmbH, priority 2010, dated 2014).

Each compound was assayed against T1, human B1R receptor (CHO K1 cells stably transfected with the human B1R gene) (Homo sapiens, UniProt P46663) (assay: Functional study on the bradykinin receptor 1 (B1R), Ca2+ fluorescence (Fluo-4) FLIPR/Novostar assay, hB1R cells). Details: CHO-K1, read-out: % Inhibition (h-B1R) at 10 μM.
T1 construct: expressed in transfected cells; host or cells: CHO K1 cells (Chinese hamster ovary), stably transfected
T1 sequence (P46663 1-353): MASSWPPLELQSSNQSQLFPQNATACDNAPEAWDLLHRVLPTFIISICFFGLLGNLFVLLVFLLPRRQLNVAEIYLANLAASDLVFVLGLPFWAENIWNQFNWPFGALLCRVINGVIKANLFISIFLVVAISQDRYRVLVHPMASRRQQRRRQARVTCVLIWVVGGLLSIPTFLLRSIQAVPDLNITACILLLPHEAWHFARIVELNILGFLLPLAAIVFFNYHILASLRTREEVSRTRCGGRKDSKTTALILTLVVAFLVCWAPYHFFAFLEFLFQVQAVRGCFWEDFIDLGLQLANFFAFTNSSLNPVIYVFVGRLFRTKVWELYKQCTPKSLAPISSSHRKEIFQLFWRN
Type: cell-based
Method in brief: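 Ca2+ influx (Fluo-4, peak fluorescence, λex 488/λem 540 nm) was measured in CHO K1 lines expressing rat or human B1R. After a 10 μM test-compound pre-addition scoring % activation, cells received EC80 agonist: Des-Arg9-bradykinin for rat, Lys-Des-Arg9-bradykinin for human. Antagonism was expressed as % of maximum inhibition, with IC50 from varied concentrations.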
`CN(C(=O)c1ccc2c(c1)C(NC(=O)c1cncnc1)CC2)C1CCN(c2ccc3cnccc3c2)CC1` (stereo not shown) [CC_H-130, N-[6-[(1-Isoquinolin-6-yl-piperidin-4-yl)-methyl-carbamoyl]-2,3-dihydro-1H-inden-1-yl]-pyrimidine-5-carboxylic acid amide] gave an inhibition at 10 µM of 81%.
For `Cc1cc(N2CCC(N(C)C(=O)c3ccc4c(c3)C(NC(=O)C(C)(C)c3ccccc3Cl)CC4)CC2)cc(C)n1` (stereo not shown) [CC_H-131, 3-[[2-(2-Chlorophenyl)-2-methyl-propanoyl]amino]-N-[1-(2,6-dimethyl-pyridin-4-yl)-piperidin-4-yl]-N-methyl-2,3-dihydro-1H-indene-5-carboxylic acid amide], the inhibition at 10 µM was 99%.
`CC(C)CC(=O)NC1CCc2ccc(C(=O)NCCC3CCN(c4ccncc4)CC3)cc21` (stereo not shown) [CC_H-132, 3-(3-Methyl-butanoylamino)-N-[2-(1-pyridin-4-yl-piperidin-4-yl)-ethyl]-2,3-dihydro-1H-indene-5-carboxylic acid amide] gave an inhibition at 10 µM of 99%.
`Cc1cccc(C)c1C(=O)NC1CCc2ccc(C(=O)N(C)C3CCN(c4ccc5cnccc5c4)CC3)cc21` (stereo not shown) [CC_H-133, 3-[(2,6-Dimethyl-benzoyl)amino]-N-(1-isoquinolin-6-yl-piperidin-4-yl)-N-methyl-2,3-dihydro-1H-indene-5-carboxylic acid amide] was tested, and the inhibition at 10 µM was 90%.
`Cc1cc(N2CCC(N(C)C(=O)c3ccc4c(c3)C(N(C)S(=O)(=O)c3c(Cl)cccc3C(F)(F)F)CC4)CC2)cc(C)n1` (stereo not shown) [CC_H-134, 3-[[[2-Chloro-6-(trifluoromethyl)-phenyl]sulfonyl]-methyl-amino]-N-[1-(2,6-dimethyl-pyridin-4-yl)-piperidin-4-yl]-N-methyl-2,3-dihydro-1H-indene-5-carboxylic acid amide] was tested, and the inhibition at 10 µM was 100%.
`CC(C)CC(=O)NC1CCCc2ccc(C(=O)N(C)C3CCN(c4ccncc4)CC3)cc21` (stereo not shown) [CC_H-135, N-Methyl-8-(3-methyl-butanoylamino)-N-(1-pyridin-4-yl-piperidin-4-yl)-5,6,7,8-tetrahydro-naphthalene-2-carboxylic acid amide] showed an inhibition at 10 µM of 100%.
With `O=C(NCCC1CCN(c2ccncc2)CC1)c1ccc2c(c1)C(NC(=O)c1c(Cl)cccc1C(F)(F)F)CC2` (stereo not shown) [CC_H-136, 3-[[2-Chloro-6-(trifluoromethyl)-benzoyl]amino]-N-[2-(1-pyridin-4-yl-piperidin-4-yl)-ethyl]-2,3-dihydro-1H-indene-5-carboxylic acid amide] the inhibition at 10 µM was 100%.
Work on `CN(C(=O)c1ccc2c(c1)C(NC(=O)c1c(Cl)cccc1C(F)(F)F)CC2)C1CCN(c2ccncc2)CC1` (stereo not shown) [CC_H-137, 3-[[2-Chloro-6-(trifluoromethyl)-benzoyl]amino]-N-methyl-N-(1-pyridin-4-yl-piperidin-4-yl)-2,3-dihydro-1H-indene-5-carboxylic acid amide] yielded an inhibition at 10 µM of 96%.
With `Cc1cccc(C)c1C(=O)NC1CCc2ccc(C(=O)N(C)C3CCN(c4ccncc4)CC3)cc21` (stereo not shown) [CC_H-138, 3-[(2,6-Dimethyl-benzoyl)amino]-N-methyl-N-(1-pyridin-4-yl-piperidin-4-yl)-2,3-dihydro-1H-indene-5-carboxylic acid amide] the inhibition at 10 µM was 98%.
`CN(C(=O)c1ccc2c(c1)C(NC(=O)C(C)(C)c1ccccc1Cl)CC2)C1CCN(c2ccncc2)CC1` (stereo not shown) [CC_H-139, 3-[[2-(2-Chlorophenyl)-2-methyl-propanoyl]amino]-N-methyl-N-(1-pyridin-4-yl-piperidin-4-yl)-2,3-dihydro-1H-indene-5-carboxylic acid amide] was tested, and the inhibition at 10 µM was 98%.
`CN(C(=O)c1ccc2c(c1)C(NC(=O)C1CCCCC1)CC2)C1CCN(c2ccncc2)CC1` (stereo not shown) [CC_H-140, 3-(Cyclohexanecarbonylamino)-N-methyl-N-(1-pyridin-4-yl-piperidin-4-yl)-2,3-dihydro-1H-indene-5-carboxylic acid amide] showed an inhibition at 10 µM of 100%.
In the case of `CN(C(=O)c1ccc2c(c1)C(NS(=O)(=O)Cc1ccccc1C(F)(F)F)CC2)C1CCN(c2ccncc2)CC1` (stereo not shown) [CC_H-141, N-Methyl-N-(1-pyridin-4-yl-piperidin-4-yl)-3-[[[2-(trifluoromethyl)-phenyl]-methylsulfonyl]amino]-2,3-dihydro-1H-indene-5-carboxylic acid amide], the inhibition at 10 µM is reported as 100%.
With `Cc1cc(N2CCC(N(C)C(=O)c3ccc4c(c3)C(NC(=O)N(C)c3ccccc3Cl)CC4)CC2)cc(C)n1` (stereo not shown) [CC_H-142, 3-[[(2-Chlorophenyl)-methyl-carbamoyl]amino]-N-[1-(2,6-dimethyl-pyridin-4-yl)-piperidin-4-yl]-N-methyl-2,3-dihydro-1H-indene-5-carboxylic acid amide] the inhibition at 10 µM was 100%.
Compound `CN(C(=O)c1ccc2c(c1)CCC2NS(=O)(=O)c1c(Cl)cccc1C(F)(F)F)C1CCN(c2ccncc2)CC1` (stereo not shown) [CC_H-143, 1-[[[2-Chloro-6-(trifluoromethyl)-phenyl]sulfonyl]amino]-N-methyl-N-(1-pyridin-4-yl-piperidin-4-yl)-2,3-dihydro-1H-indene-5-carboxylic acid amide] has an inhibition at 10 µM of 100%.

Same assay, conditions: CHO-K1, read-out: % inhibition (human B1R) at 10 μM
`Cc1cc(N2CCC(N(C)C(=O)c3ccc4c(c3)[C@H](N(C(=O)c3ccccc3C)C(C)C)CC4)CC2)nc(C)n1` [Example H-172, (3R)-N-[1-(2,6-Dimethyl-pyrimidin-4-yl)-piperidin-4-yl]-3-[isopropyl-(2-methyl-benzoyl)-amino]-N-methyl-2,3-dihydro-1H-indene-5-carboxylic acid amide] showed an inhibition at 10 µM of 65%.
For `CCN(C(=O)c1cccnc1C(F)(F)F)[C@@H]1CCc2ccc(C(=O)N(C)C3CCN(c4cc(C)nc(C)n4)CC3)cc21` [Example H-174, N-[(1R)-6-[[1-(2,6-Dimethyl-pyrimidin-4-yl)-piperidin-4-yl]-methyl-carbamoyl]-2,3-dihydro-1H-inden-1-yl]-N-ethyl-2-(trifluoromethyl)-pyridine-3-carboxylic acid amide], the inhibition at 10 µM was 100%.
In the case of `Cc1cc(N2CCC(N(C)C(=O)c3ccc4c(c3)[C@H](N(C)C(=O)c3c(F)cccc3Cl)CC4)CC2)nc(C)n1` [Example H-175, (3R)-3-[(2-Chloro-6-fluoro-benzoyl)-methyl-amino]-N-[1-(2,6 dimethyl-pyrimidin-4-yl)-piperidin-4-yl]-N-methyl-2,3-dihydro-1H-indene-5-carboxylic acid amide], the inhibition at 10 µM is reported as 97%.
In the case of `CCN(C(=O)c1c(F)cccc1Cl)[C@@H]1CCc2ccc(C(=O)N(C)C3CCN(c4cc(C)nc(C)n4)CC3)cc21` [Example H-176], the inhibition at 10 µM is reported as 97%.
Compound `CN(C(=O)c1ccc2c(c1)[C@H](N(C)C(=O)CCC1CCCC1)CC2)C1CCN(c2ccncc2F)CC1` [Example H-188, (3R)-3-(3-Cyclopentyl-propanoyl-methyl-amino)-N-[1-(3-fluoro-pyridin-4-yl)-piperidin-4-yl]-N-methyl-2,3-dihydro-1H-indene-5-carboxylic acid amide] has an inhibition at 10 µM of 100%.
In the case of `Cc1cc(N2CCC(N(C)C(=O)c3ccc4c(c3)[C@H](NS(=O)(=O)CC(C)C)CC4)CC2)nc(C)n1` [Example H-191, (3R)-N-[1-(2,6-Dimethyl-pyrimidin-4-yl)-piperidin-4-yl]-N-methyl-3-[(2-methyl-propylsulfonyl)amino]-2,3-dihydro-1H-indene-5-carboxylic acid amide], the inhibition at 10 µM is reported as 100%.
`Cc1cc(N2CCC(N(C)C(=O)c3ccc4c(c3)[C@H](N(C)C(=O)c3cccc(F)c3Cl)CC4)CC2)nc(C)n1` [Example H-195, (3R)-3-[(2-Chloro-3-fluoro-benzoyl)-methyl-amino]-N-[1-(2,6 dimethyl-pyrimidin-4-yl)-piperidin-4-yl]-N-methyl-2,3-dihydro-1H-indene-5-carboxylic acid amide] gave an inhibition at 10 µM of 100%.
In the case of `Cc1cc(N2CCC(N(C)C(=O)c3ccc4c(c3)[C@H](N(C(=O)c3cccc(F)c3Cl)C(C)C)CC4)CC2)nc(C)n1` [Example H-196, (3R)-3-[(2-Chloro-3-fluoro-benzoyl)-isopropyl-amino]-N-[1-(2,6-dimethyl-pyrimidin-4-yl)-piperidin-4-yl]-N-methyl-2,3-dihydro-1H-indene-5-carboxylic acid amide], the inhibition at 10 µM is reported as 98%.
In the case of `CCN(C(=O)c1cccc(F)c1Cl)[C@@H]1CCc2ccc(C(=O)N(C)C3CCN(c4cc(C)nc(C)n4)CC3)cc21` [Example H-197, (3R)-3-[(2-Chloro-3-fluoro-benzoyl)-ethyl-amino]-N-[1-(2,6-dimethyl-pyrimidin-4-yl)-piperidin-4-yl]-N-meihyl-2,3-dihydro-1H-indene-5-carboxylic acid amide], the inhibition at 10 µM is reported as 100%.
`Cc1cc(N2CCC(N(C)C(=O)c3cc4c(cc3F)CC[C@H]4N(C(=O)c3ccc(F)cc3Cl)C(C)C)CC2)nc(C)n1` [Example H-198, (3R)-3-[(2-Chloro-4-fluoro-benzoyl)-isopropyl-amino]-N-[1-(2,6-dimethyl-pyrimidin-4-yl)-piperidin-4-yl]-6-fluoro-N-methyl-2,3-dihydro-1H-indene-5-carboxylic acid amide] showed an inhibition at 10 µM of 76%.
`Cc1cc(N2CCC(N(C)C(=O)c3ccc4c(c3)[C@H](N(C(=O)c3ccc(F)cc3Cl)C(C)C)CC4)CC2)nc(C)n1` [Example H-199, (3R)-3-[(2-Chloro-4-fluoro-benzobenzoyl)-isopropyl-amino]-N-[1-(2,6-dimethyl-pyrimidin-4-yl)-piperidin-4-yl]-N-methyl-2,3-dihydro-1H-indene-5-carboxylic acid amide] showed an inhibition at 10 µM of 94%.
